melting point [°C]	SMILES
155 to 165	O=C(c1ccc(-n2ccnc2)cc1)N1CCN(S(=O)(=O)c2cc3cc(Cl)ccc3[nH]2)CC1
222 to 224	CS(=O)(=O)c1ccc(-c2nc3n(c2-c2ccncc2)CCC3)cc1
175	COc1ccc2c(c1)c1c(n2-c2ccccc2)C(=O)CO1
148 to 150	Cc1ccc(S(=O)(=O)c2nc(C(N)=O)n[nH]2)cc1
95 to 97	CC(C)(C)c1cc(C(=O)c2ccccn2)cc2c1OCC2(C)C
140 to 143	O=C(NCC(O)c1ccccc1)c1ccccc1 (configuration not stated)
154 to 156	CC(NC(=O)C=Cc1ccc(C(C)(C)C)cc1)c1ccc(NS(C)(=O)=O)c(F)c1 (configuration not stated)
138 to 139	COc1cc([C@H](C)O)ccc1OCCCN1CCC(c2noc3cc(F)ccc23)CC1
167 to 170	CCC1(C)CC(C#N)(NC(=O)Nc2ccccc2)C(C)C(C)(CC)N1 (configuration not stated)
97 to 98	COC(=O)c1ccc2sc(C)cc2c1
110 to 112	COc1ccc(CC(O)c2ccccn2)cc1 (configuration not stated)
158 to 162	CC1(C)CCC(C)(C)c2cc(N(CCCCOCc3ccccc3)C(=O)Nc3ccc(C(=O)O)cc3)ccc21
66	O=C(Cc1ccccc1Nc1c(Cl)cccc1Cl)OCI
73.5 to 74.5	COc1ccc(CCc2nc3ccccc3c(=O)n2CCN(C)C)cc1
144 to 146	Cn1cc(C(=O)NCc2ccc(Cl)cc2)c(=O)c2cc(CN3CCOCC3)cc(C#CCN3CCC(O)C3)c21 (configuration not stated)
164 to 166	COc1ccc(C2=NN(C3CCN(S(C)(=O)=O)CC3)C(=O)CC2)cc1OC
143 to 145	CCNC(=O)c1cc(N)ccc1[Si](C)(C)C
115 to 117	c1ccc2nc(N3CCNCC3)c(OCCOc3cncnc3)nc2c1
215	Cn1c(=O)n(Cc2ccccc2)c(=O)c2cc(C(=O)NCc3ccc4c(c3)OCO4)ccc21
284 to 290	CCOC(=O)c1c(-c2ccc(O)cc2)c(C#N)c(=O)n2ccccc12
165 to 168	CCN1C(=O)N(c2c(F)c(OC)cc(OC)c2F)Cc2cnc(SC)nc21
248 to 249	CC(C)n1nc(-c2sc(C(=O)NCC(N)=O)nc2-c2ccccc2)ccc1=O
207 to 209	CC1CN(c2nc3ccccc3s2)N=C1N (configuration not stated)
171 to 173	O=C(OC1CCCCC1)c1ccc(Nc2nc(Nc3ccc(C(=O)OC4CCCCC4)cc3)nc(Nc3ccc(C(=O)OC4CCCCC4)cc3)n2)cc1

melting point [°C]	SMILES
162 to 163	N=C(Nc1ccc(Cl)cc1)Nc1ncccc1OCc1ccccc1Cl
148 to 150	CCCCn1c(=O)c2c(ncn2S(=O)(=O)c2ccc(NO)cc2)n(CCCC)c1=O
129 to 130	CCOC(OCC)c1cc(NC(c2ccccc2)(c2ccccc2)c2ccccc2)c(F)c(Cc2ccc(F)cc2)n1
174	CC(=O)OC1CSC(Oc2cncc(Br)c2)C(OC(C)=O)C1OC(C)=O (configuration not stated)
135 to 136	COc1cc(NC(=C(C#N)S(C)(=O)=O)C(C)C)cc(OC)c1
123 to 124	COC(=O)c1cc(OCc2nc(-c3ccccc3)oc2C)no1
293 to 295	Cc1ccc(-c2c(-c3ccc(S(N)(=O)=O)cc3)[nH]c3ccccc23)cc1
68 to 69	CC(C)(C(=O)c1ccc(S)cc1)N1CCOCC1
149 to 151	CCOC(=O)c1cc(-c2ccc3ccccc3c2)[nH]c1N
52 to 54	CCCC1CCC(CC(=O)N[C@@H](Cc2cc(F)cc(F)c2)[C@H](O)CNCc2cccc(CC)c2)CC1=O (some centres not stated)
123 to 125	Cc1cc2c(c(C)c1O)C(C)CN2C(=O)C(C)C (configuration not stated)
220 to 223	O=S(=O)(Nc1cccc2c(O)cccc12)N1CCOCC1
220 to 221	Cc1ccc(NS(=O)(=O)c2cccc(C#N)c2)c2[nH]cc(C#N)c12
95 to 97	COc1ccc2cc(C(C)C(=O)ON3CCCCC3)ccc2c1 (configuration not stated)
101	Cc1cc(Cl)c(O)c(CN(C)C2CCCCCCC2)c1
71	Clc1ccc(C(CCC2CCCC2)Cn2cncn2)c(Cl)c1 (configuration not stated)
107 to 111	CCCCCCCCCCCCCC(=O)NN
108 to 110	COc1ccc(C2CC(OC(C)=O)CCC2[N+](=O)[O-])cc1OC (configuration not stated)
69 to 70	CC(C)Nc1cc(Cl)nc(Cl)n1
238 to 239	O=C(O)CCc1c(C(=O)O)[nH]c2cc(-c3ccccc3)ccc12
172 to 174	c1ccc2c(c1)CNc1cccnc1O2
108 to 110	COc1cc(F)c(C)cc1N
136 to 138	CCOC(=O)c1cc(Cl)c(-n2ncc(C)n2)c(Cl)c1
149 to 150	COC(=O)CCC(C(=O)C=Cc1ccc(OC(C)=O)c(OC(F)(F)F)c1)C(=O)C=Cc1ccc(OC(C)=O)c(OC(F)(F)F)c1 (configuration not stated)

melting point [°C]	SMILES
180 to 182	Cc1cc(N2CCN(c3c(C)c(C)c4c(c3C)CC(C)(C)O4)CC2)n2nccc2n1
144 to 145	O=C1CCC(Cc2ccc(Br)cc2)=C1O
142	COc1ccc(C2CC(c3cccc(OC)c3)=NN2c2ccc(C(=O)O)cc2)cc1 (configuration not stated)
133 to 135	CN1CCC(O)(c2cc(F)c(Br)cc2F)CC1
81	CCOC(=O)[C@H](CSC(=O)c1ccccc1)NC(=O)c1ccccc1
136 to 139	Cc1ccc(NC(=O)c2cccc(N(C)C)c2)cc1NC(=O)c1ccccc1O
171 to 177	CN(Cc1sc2c(=O)c(C(=O)NCc3ccc(Cl)cc3)cn(C)c2c1CNS(C)(=O)=O)C[C@@H](O)c1ccccn1
364 to 365	Nc1ccc(Sc2cccc3c2C(=O)c2cccc(Sc4ccc(N)cc4)c2C3=O)cc1
> 270	CCOc1cc2ncc(C#N)c(Nc3ccc4c(=O)[nH][nH]c(=O)c4c3)c2cc1OCC
137 to 139	COc1ccc(C(CC2=NOC(=O)C2)c2ccccc2)cc1OC1CCCC1 (configuration not stated)
151 to 153	CC(C)C[C@H](NC(=O)c1cc2ccccc2o1)C(=O)N[C@H]1CC[C@@H](C)N(S(=O)(=O)c2ccccn2)CC1=O
244 to 247	Cc1cc(C(=O)O)ccc1-c1cnc2[nH]c(=O)n(CC3CCCCC3)c2n1
80	CC(C)(C)c1cccc(S(=O)(=O)n2c(CBr)cc3cc(C(F)(F)F)ccc32)c1
211 to 212	Nc1c2c(nc3ccccc13)-c1ccccc1SC2
126 to 127	O=C1NC(=O)C(Cc2ccc(S(=O)(=O)CCCc3ccccc3)cc2)S1 (configuration not stated)
180 to 182	COc1nc(C)cnc1NS(=O)(=O)c1cccnc1-c1ccc(OCCO)cc1
111 to 113	COC(=O)CCCN(C(=O)C(C)N(C(C)=O)c1ccc(OC)cc1)c1ccc(OC)cc1 (configuration not stated)
45 to 46	COC(C)(OC)C(C#N)=Cc1ccccc1
141 to 142	CC(=O)c1sc(N2CCN(Cc3ccc(C(F)(F)F)cc3)C2=O)nc1C
145 to 147	COc1c(C=CC(=O)O)cccc1Oc1ccccc1Cl
242	Cc1cc(C)cc(C(=O)c2ccc(O)c(CC(=O)O)c2)c1
63 to 65	CCOC(=O)CNC(=O)C(=O)NCC(OC)OC
281 to 283	CC1Cc2cc3c(cc2C(c2ccc([N+](=O)[O-])cc2)=NN1C(=S)NC(=O)NC1CC1)OCO3 (configuration not stated)
95 to 99	COc1ccc2c(c1)OCC(Cc1cccnc1)C2=O (configuration not stated)

melting point [°C]	SMILES
172	CCn1c2c(c3ccccc31)=CC(=C1c3ccccc3-c3ccccc31)CC=2
218 to 219	Nc1ccc(S(=O)(=O)c2cnc(N)s2)cc1
191 to 193	O=C(O)COc1cc(Cl)ccc1C(=O)NCc1cc(C(F)(F)F)cc(C(F)(F)F)c1
348 to 350	COc1ccccc1-n1c(=O)[nH]c2c(C(N)=O)nc(-c3cccc(C(=O)O)c3)nc21
103 to 104	CC1CCC(C(C)C)C(OCC(=O)OC2CC(=O)C(CCCCCCC(=O)O)=C2C=Cc2ccccc2)C1 (configuration not stated)
128 to 136	COCC(O)Cn1c2ccc(OC)cc2c2c3c(c(-c4ccccc4)cc21)C(=O)NC3=O (configuration not stated)
101	COC(=O)CCCc1cc2nc(Cl)ccc2n1S(=O)(=O)c1ccc(-c2nccs2)cc1
95 to 96	COc1ccc2c(c1CC=C(C)C)OC(c1ccc(O)cc1O)CC2 (configuration not stated)
166 to 167	O=C(OCC(Cl)(Cl)Cl)Oc1cc2occ(C(=O)O)c(=O)c2cc1OC(=O)OCC(Cl)(Cl)Cl
172 to 173	CCCn1nc2c(N)nc3ccccc3c2c1CCCc1cc(-c2ccccc2)on1
231	CCCOc1ccccc1-c1nc2nc(OC)ncc2c(=O)[nH]1
112 to 113	CCCCCC(CC(=O)Nc1cc(CNC(N)=O)ccc1C(C)(C)C)c1ccc(OC)cc1OC (configuration not stated)
188 to 190	CC(Cn1ncnn1)n1nnc2cc3c(cc2c1=O)OC1COCCN1C3=O (configuration not stated)
254 to 255	Brc1ccc(-c2cc(-c3ccc(Br)cc3)cc(-c3ccc(Br)cc3)c2)cc1
168 to 170	CC(=O)Nc1ccc(-n2ccnc2S(=O)Cc2ccccc2N(C)C)nc1 (configuration not stated)
260 to 264	Cc1ccc(Nc2nc(-c3ccccc3)cs2)nc1
88 to 89	COc1cccc2ccc(C(F)(F)F)nc12
178 to 179	COc1ccc(CCC(=O)C2CCC3C4CCc5cc(C(=O)O)ccc5C4CCC23C)cc1 (configuration not stated)
160 to 161	O=c1c2ccccc2nc(-c2cc(-c3ccccc3)c(N3CCOCC3)s2)n1-c1ccccc1Cl
178 to 180	CCCCc1cn(CCCC)c(=O)n1Cc1ccc(-c2ncccc2-c2nnn[nH]2)cc1
129 to 131	CC(=O)OC1CSC(Oc2cncc(-c3c(C)noc3C)c2)C(OC(C)=O)C1OC(C)=O (configuration not stated)

SMILES	melting point [°C]
C1=NCc2cncn2-c2ccccc21	150 to 151
COc1ccc(N2CCN(C)[C@@H]3Cc4ccccc4[C@H]32)c(CO)c1 (relative stereo)	179 to 183
Cc1cccc(NC(=O)NC2N=C(c3ccccc3F)c3ccccc3N(Cc3nccc4ccccc34)C2=O)c1 (racemic)	145 to 147
Cn1cccc1C(=O)Nc1cccc(C=CC(=O)N2CC(CCl)c3ccc([N+](=O)[O-])cc32)c1 (configuration not stated)	215

Source: a melting point compilation (Tetko et al.; mined from patent text by program, amines drawn as free bases though some values may be those of a salt)
